Measured values published in the supplement of paper PMC10307832.

Tests used:
Assay in all cases: relative viability (nuclei count vs DMSO), 5 days (fraction); higher = more cells survive
Carboplatin + OSI-027 = compound: C1CC(C1)(C(=O)O)C(=O)O.[NH2-].[NH2-].[Pt+2] [Carboplatin] + COc1cccc2cc(-c3nc([C@H]4CC[C@H](C(=O)O)CC4)n4ncnc(N)c34)[nH]c12 [OSI-027] (partner 0.5 µM)
Outline: (§1)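 Five library-drug doses in √10 steps were combined with a fixed anchor-drug dose, or a single drug was given alone, by pin tool to lung cancer cell lines in 1536-well plates the day after seeding. Nuclei were stained and counted after 5 days. Relative viability is the nuclei count in treated wells over that in vehicle wells, taken as the median of duplicate plates.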

Carboplatin + Dasatinib = compound: C1CC(C1)(C(=O)O)C(=O)O.[NH2-].[NH2-].[Pt+2] [Carboplatin] + Cc1nc(Nc2ncc(C(=O)Nc3c(C)cccc3Cl)s2)cc(N2CCN(CCO)CC2)n1 [Dasatinib] (partner 0.075 µM)
Outline: as §1

GSK126 + Trametinib = compound: CC[C@H](C)N1C=C(C2=C(C=C(C=C21)C3=CN=C(C=C3)N4CCNCC4)C(=O)NCC5=C(C=C(NC5=O)C)C)C [GSK126] + CC(=O)Nc1cccc(-n2c(=O)n(C3CC3)c(=O)c3c(Nc4ccc(I)cc4F)n(C)c(=O)c(C)c32)c1 [Trametinib] (partner 0.02 µM)
Outline: as §1

GSK126 + Phenformin = compound: CC[C@H](C)N1C=C(C2=C(C=C(C=C21)C3=CN=C(C=C3)N4CCNCC4)C(=O)NCC5=C(C=C(NC5=O)C)C)C [GSK126] + N=C(N)NC(=N)NCCc1ccccc1 [Phenformin] (partner 250 µM)
Outline: as §1

Cell Line	relative viability (Carboplatin + OSI-027; first compound 0.08 µM)	relative viability (Carboplatin + OSI-027; first compound 0.253 µM)	relative viability (Carboplatin + OSI-027; first compound 0.8 µM)	relative viability (Carboplatin + OSI-027; first compound 2.53 µM)	relative viability (Carboplatin + OSI-027; first compound 8 µM)	relative viability (Carboplatin + Dasatinib; first compound 0.08 µM)	relative viability (Carboplatin + Dasatinib; first compound 0.253 µM)	relative viability (Carboplatin + Dasatinib; first compound 0.8 µM)	relative viability (Carboplatin + Dasatinib; first compound 2.53 µM)	relative viability (Carboplatin + Dasatinib; first compound 8 µM)	relative viability (GSK126 + Trametinib; first compound 0.08 µM)	relative viability (GSK126 + Trametinib; first compound 0.253 µM)	relative viability (GSK126 + Trametinib; first compound 0.8 µM)	relative viability (GSK126 + Trametinib; first compound 2.53 µM)	relative viability (GSK126 + Trametinib; first compound 8 µM)	relative viability (GSK126 + Phenformin; first compound 0.08 µM)	relative viability (GSK126 + Phenformin; first compound 0.253 µM)	relative viability (GSK126 + Phenformin; first compound 0.8 µM)	relative viability (GSK126 + Phenformin; first compound 2.53 µM)	relative viability (GSK126 + Phenformin; first compound 8 µM)
PC-14	0.864	0.923	0.716	0.369	0.133	0.288	0.292	0.261	0.131	0.068	0.912	0.694	0.708	0.662	0.699	0.554	0.611	0.667	0.651	0.565
HCC-15	0.833	0.664	0.689	0.635	0.439	0.69	0.645	0.621	0.591	0.407	0.425	0.409	0.386	0.382	0.359	0.513	0.419	0.457	0.422	0.442
NCI-H2347	0.42	0.421	0.409	0.423	0.324	0.325	0.26	0.346	0.322	0.273	0.289	0.276	0.261	0.303	0.298	0.488	0.444	0.499	0.352	0.409
LOU-NH91	0.811	0.72	0.75	0.761	0.73	0.674	0.578	0.542	0.568	0.538	0.813	0.771	0.765	0.821	0.761	0.785	0.755	0.692	0.662	0.639
LCLC-103H	0.456	0.544	0.5	0.468	0.482	0.481	0.55	0.524	0.482	0.445	0.71	0.708	0.647	0.64	0.725	0.331	0.383	0.377	0.344	0.39
EMC-BAC-2	0.423	0.372	0.364	0.374	0.375	0.327	0.343	0.305	0.271	0.281	0.849	0.832	0.92	0.676	0.859	0.606	0.528	0.505	0.483	0.482
NCI-H2228	0.685	0.63	0.597	0.64	0.349	0.667	0.482	0.425	0.444	0.326	0.677	0.502	0.407	0.606	0.513	0.43	0.295	0.376	0.337	0.365
HOP-62	0.905	0.808	0.823	0.777	0.726	0.711	0.711	0.645	0.728	0.575	0.406	0.411	0.357	0.383	0.375	0.672	0.68	0.672	0.642	0.68
NCI-H727	0.732	0.547	0.555	0.617	0.551	0.472	0.356	0.374	0.364	0.376	0.4	0.4	0.424	0.39	0.412	0.469	0.622	0.587	0.624	0.533
COR-L 105	0.835	0.776	0.696	0.62	0.537	0.364	0.351	0.37	0.293	0.297	0.453	0.424	0.467	0.439	0.466	0.5	0.547	0.596	0.529	0.513
NCI-H358	1	0.878	0.8	0.843	0.611	0.162	0.171	0.163	0.178	0.18	0.15	0.141	0.158	0.12	0.138	0.465	0.306	0.379	0.402	0.299
SK-MES-1	0.684	0.609	0.699	0.628	0.553	0.574	0.354	0.344	0.379	0.363	0.573	0.6	0.539	0.491	0.515	0.743	0.673	0.635	0.526	0.535
LC-2-ad	0.877	0.825	0.778	0.696	0.404	0.701	0.567	0.414	0.416	0.277	0.926	0.9	0.91	0.885	0.957	0.627	0.634	0.583	0.56	0.642
H3255	0.591	0.513	0.529	0.519	0.488	0.367	0.416	0.418	0.415	0.334	0.685	0.628	0.639	0.546	0.571	0.354	0.382	0.352	0.341	0.368
A-427	0.449	0.531	0.479	0.499	0.39	0.728	0.772	0.716	0.704	0.657	0.845	0.762	0.712	0.757	0.795	0.362	0.34	0.311	0.346	0.258
NCI-H661	0.758	0.824	0.66	0.578	0.478	1.06	0.923	0.844	0.82	0.746	0.632	0.548	0.523	0.596	0.687	0.277	0.264	0.691	0.269	0.244
NCI-H1993	0.463	0.556	0.566	0.51	0.498	0.517	0.591	0.522	0.559	0.601	0.517	0.525	0.448	0.54	0.467	0.501	0.546	0.501	0.522	0.554
NCI-H1944	0.539	0.407	0.41	0.382	0.317	0.235	0.206	0.226	0.22	0.174	0.415	0.373	0.435	0.443	0.413	0.194	0.196	0.183	0.168	0.178
SK-LU-1	0.444	0.387	0.339	0.292	0.213	0.198	0.205	0.166	0.179	0.165	0.519	0.524	0.485	0.816	0.486	0.674	0.521	0.553	0.582	0.603
NCI-H1915	0.616	0.576	0.673	0.601	0.408	0.288	0.304	0.315	0.305	0.255	0.344	0.29	0.313	0.315	0.332	0.412	0.374	0.404	0.359	0.371
NCI-H650	0.526	0.514	0.601	0.539	0.356	0.472	0.47	0.399	0.423	0.371	1.02	0.891	0.919	0.945	0.994	0.431	0.464	0.445	0.437	0.472
SW 1573	0.653	0.694	0.67	0.617	0.437	0.58	0.495	0.474	0.507	0.329	0.57	0.618	0.596	0.587	0.622	0.41	0.4	0.376	0.439	0.423
NCI-H460	0.778	0.708	0.631	0.332	0.0817	0.551	0.429	0.464	0.427	0.183	0.422	0.153	0.121	0.11	0.195	0.587	0.531	0.523	0.483	0.468
NCI-H1563	0.821	0.751	0.773	0.754	0.775	0.496	0.464	0.439	0.399	0.445						0.665	0.676	0.654	0.596	0.646
NCI-H1648	0.238	0.258	0.247		0.265						0.544	0.959	0.409	0.522	0.445					
ABC-1	0.551	0.509	0.547	0.335	0.299	0.654	0.639	0.522	0.546	0.458						0.243	0.262	0.268	0.244	0.242
HCC-44	0.53	0.572	0.5	0.484	0.292						1.08	1.04	1.06	1.03	1.06	0.23	0.194	0.186	0.192	0.243
A549																0.245	0.169	0.126	0.131	0.114
NCI-H1623	0.481	0.404	0.455	0.41	0.385	0.583	0.553	0.57	0.506	0.469						0.631	0.594	0.602	0.589	0.537
